Biological target: T1, Angiotensin-converting enzyme (Oryctolagus cuniculus) (UniProt P12822)
T1 sequence (whole entry): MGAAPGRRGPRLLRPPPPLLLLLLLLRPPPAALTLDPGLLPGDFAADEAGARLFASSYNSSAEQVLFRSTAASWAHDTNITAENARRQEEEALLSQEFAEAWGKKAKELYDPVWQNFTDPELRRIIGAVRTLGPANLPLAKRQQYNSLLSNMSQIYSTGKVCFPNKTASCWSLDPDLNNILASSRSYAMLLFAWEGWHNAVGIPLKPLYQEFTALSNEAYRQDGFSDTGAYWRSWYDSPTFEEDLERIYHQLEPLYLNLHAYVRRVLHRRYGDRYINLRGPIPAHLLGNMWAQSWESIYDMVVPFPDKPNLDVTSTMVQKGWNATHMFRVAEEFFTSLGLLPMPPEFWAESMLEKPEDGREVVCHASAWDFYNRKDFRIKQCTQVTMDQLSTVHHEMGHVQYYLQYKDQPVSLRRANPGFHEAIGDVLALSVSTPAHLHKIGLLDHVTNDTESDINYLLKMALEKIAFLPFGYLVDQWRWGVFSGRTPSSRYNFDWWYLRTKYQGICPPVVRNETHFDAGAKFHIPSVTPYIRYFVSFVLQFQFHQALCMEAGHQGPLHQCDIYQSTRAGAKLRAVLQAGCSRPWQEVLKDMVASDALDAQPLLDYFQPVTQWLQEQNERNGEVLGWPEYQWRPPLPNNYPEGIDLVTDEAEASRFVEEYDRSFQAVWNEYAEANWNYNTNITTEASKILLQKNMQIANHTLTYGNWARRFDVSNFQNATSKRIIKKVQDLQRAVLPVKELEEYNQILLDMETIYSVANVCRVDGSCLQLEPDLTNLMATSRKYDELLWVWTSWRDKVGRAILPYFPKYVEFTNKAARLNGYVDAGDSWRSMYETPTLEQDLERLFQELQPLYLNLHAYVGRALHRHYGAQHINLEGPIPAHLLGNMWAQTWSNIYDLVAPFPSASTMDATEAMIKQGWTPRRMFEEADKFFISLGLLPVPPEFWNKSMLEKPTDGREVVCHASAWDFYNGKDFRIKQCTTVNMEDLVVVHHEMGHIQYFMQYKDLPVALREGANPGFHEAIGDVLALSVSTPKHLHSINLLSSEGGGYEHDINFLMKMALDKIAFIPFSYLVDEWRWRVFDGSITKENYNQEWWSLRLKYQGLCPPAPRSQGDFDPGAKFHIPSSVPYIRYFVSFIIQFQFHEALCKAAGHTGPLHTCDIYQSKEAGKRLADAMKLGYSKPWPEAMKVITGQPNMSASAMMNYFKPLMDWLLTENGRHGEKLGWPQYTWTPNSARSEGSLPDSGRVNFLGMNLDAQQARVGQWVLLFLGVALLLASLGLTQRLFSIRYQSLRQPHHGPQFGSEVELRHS
Test: Inhibition of rabbit lung ACE activity relative to control
Design: concentration or dose not given beside the values
Conditions: concentration not given here

SMILES | inhibition
NCCC[C@H](NC(=O)c1c[nH]c2ccccc12)C(=O)N1CCC[C@H]1C(=O)O | 27.7%
NCCC[C@H](NC(=O)Cc1c[nH]c2ccccc12)C(=O)N1CCC[C@H]1C(=O)O | 38.5%
NCCC[C@H](NC(=O)c1ccsc1)C(=O)N1CCC[C@H]1C(=O)O | 23.7%
NCCC[C@H](NC(=O)CCc1c[nH]c2ccccc12)C(=O)N1CCC[C@H]1C(=O)O | 59.7%
NCCC[C@H](NC(=O)CCCc1c[nH]c2ccccc12)C(=O)N1CCC[C@H]1C(=O)O | 33.8%
NCCC[C@H](NC(=O)CCc1ccsc1)C(=O)N1CCC[C@H]1C(=O)O | 72.7%
NCCC[C@H](NC(=O)Cc1ccsc1)C(=O)N1CCC[C@H]1C(=O)O | 35.6%
NCCC[C@H](NC(=O)CCCc1ccsc1)C(=O)N1CCC[C@H]1C(=O)O | 37.2%
